Laboratory results reported in patent EP4603105A1, “PHARMACEUTICAL COMPOSITION CONTAINING CYCLIC COMPOUND HAVING SELECTIVE KRAS INHIBITORY EFFECT AGAINST HRAS AND NRAS” (CHUGAI SEIYAKU KABUSHIKI KAISHA, priority 2022, dated 2024).
Where a SMILES comes first, the peptide text is derived from it. Bridges are numbered along the chain shown (N, C = ends). [ ]: non-standard residue; d: D form. The star is where a group is joined. hPhe(3-Cl-4-CF3) = N[C@@H](CCc1ccc(C(F)(F)F)c(Cl)c1)C(=O)O; NPrPhe(4-CF3) = CCCN[C@@H](Cc1ccc(C(F)(F)F)cc1)C(=O)O; NMeAbu(4,4,4-F3) = CN[C@@H](CC(F)(F)F)C(=O)O; NMeGly(cPent) = CN[C@H](C(=O)O)C1CCCC1; Pro(4,4-F2) = O=C(O)[C@@H]1CC(F)(F)CN1; NMeGly(cBu) = CN[C@H](C(=O)O)C1CCC1; NMeD = CN[C@@H](CC(=O)O)C(=O)O; NMeL = CN[C@@H](CC(C)C)C(=O)O; NMeNva = CCC[C@H](NC)C(=O)O; NMeAbu = CC[C@H](NC)C(=O)O; Morpholide = C1CN(*)CCO1; NMeA = CN[C@@H](C)C(=O)O; Ac5c = NC1(C(=O)O)CCCC1; Aze = O=C(O)[C@@H]1CCN1; Ac4c = NC1(C(=O)O)CCC1; Sar = CNCC(=O)O

Columns and labels:
[1] = molecular target: GDP-bound NRAS wild-type protein (Homo sapiens, UniProt P01111); test: Binding to NRAS by surface plasmon resonance (SPR), KD and KD ratio to KRAS; conditions: ratio of KD for GDP-bound NRAS wild-type protein to KD for KRAS
GDP-bound NRAS wild-type protein, sequence (P01111 whole entry): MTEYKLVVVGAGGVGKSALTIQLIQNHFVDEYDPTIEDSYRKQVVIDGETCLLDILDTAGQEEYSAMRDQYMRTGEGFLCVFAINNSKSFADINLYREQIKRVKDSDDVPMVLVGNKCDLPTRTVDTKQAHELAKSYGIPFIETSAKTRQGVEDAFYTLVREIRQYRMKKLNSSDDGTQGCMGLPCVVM
Summary of the method: (§1)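 Captured GDP-RAS (~100–300 RU) was exposed to increasing compound concentrations, 75 s per step, in running buffer with 10 µM GDP, 10 mM MgCl2 and 4% DMSO at pH 7.4.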

HRAS wild-type protein = HRAS wild-type protein (Homo sapiens, UniProt P01112); test: Binding to HRAS by surface plasmon resonance (SPR), KD and KD ratio to KRAS; conditions: ratio of KD for HRAS wild-type protein to KD for KRAS
HRAS wild-type protein, sequence (P01112 whole entry): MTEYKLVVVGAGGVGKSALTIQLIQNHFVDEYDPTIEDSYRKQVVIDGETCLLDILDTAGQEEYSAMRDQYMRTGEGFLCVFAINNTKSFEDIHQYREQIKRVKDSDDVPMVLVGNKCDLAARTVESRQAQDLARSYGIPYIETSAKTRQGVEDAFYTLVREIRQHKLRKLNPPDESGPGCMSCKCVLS
Summary of the method: as §1

[2] = tested on: human lung cancer strain NCI-H441; type: cell-based
Summary of the method: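 Step one: dispense the test compound in serial DMSO dilutions. Step three: add the reagent and measure […].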

## CCCN1C(=O)[C@@H]2CCN2C(=O)[C@H](C)N(C)C(=O)[C@H]([C@@H](C)CC)NC(=O)[C@H](C2CCC2)N(C)C(=O)C[C@@H](C(=O)N2CCOCC2)N(C)C(=O)[C@H](C2CCCC2)N(C)C(=O)C2(CCCC2)NC(=O)[C@@H]2CCCN2C(=O)[C@H](CCc2ccc(C(F)(F)F)c(Cl)c2)NC(=O)CN(C)C(=O)[C@@H]1Cc1ccc(C(F)(F)F)cc1 [PP0192] ([NMeGly(cBu)]I[NMeA][Aze][NPrPhe(4-CF3)][Sar][hPhe(3-Cl-4-CF3)]P[Ac5c][NMeGly(cPent)][NMeD]-Morpholide; lactam N-11)
[1]
  NRAS /KRAS: C (A compound having a KD ratio of 0.1 or more and less than 3 is denoted as C)
HRAS wild-type protein
  HRAS /KRAS: B (a compound having 3 or more and less than 10 is denoted as B)
[2]
  IC50: 2.6 nM

## CCC[C@H]1C(=O)N[C@@H]([C@@H](C)CC)C(=O)N(C)[C@@H](C)C(=O)N2CC[C@H]2C(=O)N(CCC)[C@@H](Cc2ccc(C(F)(F)F)cc2)C(=O)N(C)CC(=O)N[C@@H](CCc2ccc(C(F)(F)F)c(Cl)c2)C(=O)N2CCC[C@H]2C(=O)NC2(CCCC2)C(=O)N(C)[C@@H](C2CCCC2)C(=O)N(C)[C@H](C(=O)N2CCOCC2)CC(=O)N1C [PP0193] ([NMeNva]I[NMeA][Aze][NPrPhe(4-CF3)][Sar][hPhe(3-Cl-4-CF3)]P[Ac5c][NMeGly(cPent)][NMeD]-Morpholide; lactam N-11)
[1]
  NRAS /KRAS: C (A compound having a KD ratio of 0.1 or more and less than 3 is denoted as C)
HRAS wild-type protein
  HRAS /KRAS: C (A compound having a KD ratio of 0.1 or more and less than 3 is denoted as C)
[2]
  IC50: 1.4 nM

## CCCN1C(=O)[C@@H]2CCN2C(=O)[C@H](C)N(C)C(=O)[C@H]([C@@H](C)CC)NC(=O)[C@H](CC)N(C)C(=O)C[C@@H](C(=O)N2CCOCC2)N(C)C(=O)[C@H](C2CCCC2)N(C)C(=O)C2(CCCC2)NC(=O)[C@@H]2CCCN2C(=O)[C@H](CCc2ccc(C(F)(F)F)c(Cl)c2)NC(=O)CN(C)C(=O)[C@@H]1Cc1ccc(C(F)(F)F)cc1 [PP0194] ([NMeAbu]I[NMeA][Aze][NPrPhe(4-CF3)][Sar][hPhe(3-Cl-4-CF3)]P[Ac5c][NMeGly(cPent)][NMeD]-Morpholide; lactam N-11)
[1]
  NRAS /KRAS: C (A compound having a KD ratio of 0.1 or more and less than 3 is denoted as C)
HRAS wild-type protein
  HRAS /KRAS: B (a compound having 3 or more and less than 10 is denoted as B)
[2]
  IC50: 1.9 nM

## CCCN1C(=O)CN(C)C(=O)CN(C)C(=O)[C@H]([C@@H](C)CC)NC(=O)[C@H](CC(C)C)N(C)C(=O)C[C@@H](C(=O)N2CCOCC2)N(C)C(=O)[C@H](C2CCCC2)N(C)C(=O)C2(CCCC2)NC(=O)[C@@H]2CC(F)(F)CN2C(=O)[C@H](CCc2ccc(C(F)(F)F)c(Cl)c2)NC(=O)CN(C)C(=O)[C@@H]1Cc1ccc(C(F)(F)F)cc1 [PP0195] ([NMeL]I[Sar][Sar][NPrPhe(4-CF3)][Sar][hPhe(3-Cl-4-CF3)][Pro(4,4-F2)][Ac5c][NMeGly(cPent)][NMeD]-Morpholide; lactam N-11)
[1]
  NRAS /KRAS: B (a compound having 3 or more and less than 10 is denoted as B)
HRAS wild-type protein
  HRAS /KRAS: C (A compound having a KD ratio of 0.1 or more and less than 3 is denoted as C)
[2]
  IC50: 2.7 nM

## CCCN1C(=O)[C@@H]2CCN2C(=O)[C@H](C)N(C)C(=O)[C@H]([C@@H](C)CC)NC(=O)[C@H](CC(C)C)N(C)C(=O)C[C@@H](C(=O)N2CCOCC2)N(C)C(=O)[C@H](C2CCCC2)N(C)C(=O)C2(CCCC2)NC(=O)[C@@H]2CC(F)(F)CN2C(=O)[C@H](CCc2ccc(C(F)(F)F)c(Cl)c2)NC(=O)CN(C)C(=O)[C@@H]1Cc1ccc(C(F)(F)F)cc1 [PP0196] ([NMeL]I[NMeA][Aze][NPrPhe(4-CF3)][Sar][hPhe(3-Cl-4-CF3)][Pro(4,4-F2)][Ac5c][NMeGly(cPent)][NMeD]-Morpholide; lactam N-11)
[1]
  NRAS /KRAS: C (A compound having a KD ratio of 0.1 or more and less than 3 is denoted as C)
HRAS wild-type protein
  HRAS /KRAS: C (A compound having a KD ratio of 0.1 or more and less than 3 is denoted as C)
[2]
  IC50: 3.7 nM

## CCCN1C(=O)CN(C)C(=O)CN(C)C(=O)[C@H]([C@@H](C)CC)NC(=O)[C@H](CC(C)C)N(C)C(=O)C[C@@H](C(=O)N2CCOCC2)N(C)C(=O)[C@H](C2CCCC2)N(C)C(=O)C2(CCC2)NC(=O)[C@@H]2CCCN2C(=O)[C@H](CCc2ccc(C(F)(F)F)c(Cl)c2)NC(=O)CN(C)C(=O)[C@@H]1Cc1ccc(C(F)(F)F)cc1 [PP0197] ([NMeL]I[Sar][Sar][NPrPhe(4-CF3)][Sar][hPhe(3-Cl-4-CF3)]P[Ac4c][NMeGly(cPent)][NMeD]-Morpholide; lactam N-11)
[1]
  NRAS /KRAS: B (a compound having 3 or more and less than 10 is denoted as B)
HRAS wild-type protein
  HRAS /KRAS: C (A compound having a KD ratio of 0.1 or more and less than 3 is denoted as C)
[2]
  IC50: 3.6 nM

## CCCN1C(=O)[C@@H]2CCN2C(=O)[C@H](C)N(C)C(=O)[C@H]([C@@H](C)CC)NC(=O)[C@H](CC(C)C)N(C)C(=O)C[C@@H](C(=O)N2CCOCC2)N(C)C(=O)[C@H](C2CCCC2)N(C)C(=O)C2(CCC2)NC(=O)[C@@H]2CCCN2C(=O)[C@H](CCc2ccc(C(F)(F)F)c(Cl)c2)NC(=O)CN(C)C(=O)[C@@H]1Cc1ccc(C(F)(F)F)cc1 [PP0198] ([NMeL]I[NMeA][Aze][NPrPhe(4-CF3)][Sar][hPhe(3-Cl-4-CF3)]P[Ac4c][NMeGly(cPent)][NMeD]-Morpholide; lactam N-11)
[1]
  NRAS /KRAS: C (A compound having a KD ratio of 0.1 or more and less than 3 is denoted as C)
HRAS wild-type protein
  HRAS /KRAS: B (a compound having 3 or more and less than 10 is denoted as B)
[2]
  IC50: 5.7 nM

## CCCN1C(=O)CN(C)C(=O)CN(C)C(=O)[C@H]([C@@H](C)CC)NC(=O)[C@H](CC(F)(F)F)N(C)C(=O)C[C@@H](C(=O)N2CCOCC2)N(C)C(=O)[C@H](C2CCCC2)N(C)C(=O)C2(CCCC2)NC(=O)[C@@H]2CC(F)(F)CN2C(=O)[C@H](CCc2ccc(C(F)(F)F)c(Cl)c2)NC(=O)CN(C)C(=O)[C@@H]1Cc1ccc(C(F)(F)F)cc1 [PP0199] ([NMeAbu(4,4,4-F3)]I[Sar][Sar][NPrPhe(4-CF3)][Sar][hPhe(3-Cl-4-CF3)][Pro(4,4-F2)][Ac5c][NMeGly(cPent)][NMeD]-Morpholide; lactam N-11)
[1]
  NRAS /KRAS: B (a compound having 3 or more and less than 10 is denoted as B)
HRAS wild-type protein
  HRAS /KRAS: C (A compound having a KD ratio of 0.1 or more and less than 3 is denoted as C)
[2]
  IC50: 3.5 nM

## CCCN1C(=O)CN(C)C(=O)CN(C)C(=O)[C@H]([C@@H](C)CC)NC(=O)[C@H](C2CCC2)N(C)C(=O)C[C@@H](C(=O)N2CCOCC2)N(C)C(=O)[C@H](C2CCCC2)N(C)C(=O)C2(CCCC2)NC(=O)[C@@H]2CC(F)(F)CN2C(=O)[C@H](CCc2ccc(C(F)(F)F)c(Cl)c2)NC(=O)CN(C)C(=O)[C@@H]1Cc1ccc(C(F)(F)F)cc1 [PP0200] ([NMeGly(cBu)]I[Sar][Sar][NPrPhe(4-CF3)][Sar][hPhe(3-Cl-4-CF3)][Pro(4,4-F2)][Ac5c][NMeGly(cPent)][NMeD]-Morpholide; lactam N-11)
[1]
  NRAS /KRAS: C (A compound having a KD ratio of 0.1 or more and less than 3 is denoted as C)
HRAS wild-type protein
  HRAS /KRAS: C (A compound having a KD ratio of 0.1 or more and less than 3 is denoted as C)
[2]
  IC50: 2.5 nM

## CCC[C@H]1C(=O)N[C@@H]([C@@H](C)CC)C(=O)N(C)CC(=O)N(C)CC(=O)N(CCC)[C@@H](Cc2ccc(C(F)(F)F)cc2)C(=O)N(C)CC(=O)N[C@@H](CCc2ccc(C(F)(F)F)c(Cl)c2)C(=O)N2CC(F)(F)C[C@H]2C(=O)NC2(CCCC2)C(=O)N(C)[C@@H](C2CCCC2)C(=O)N(C)[C@H](C(=O)N2CCOCC2)CC(=O)N1C [PP0201] ([NMeNva]I[Sar][Sar][NPrPhe(4-CF3)][Sar][hPhe(3-Cl-4-CF3)][Pro(4,4-F2)][Ac5c][NMeGly(cPent)][NMeD]-Morpholide; lactam N-11)
[1]
  NRAS /KRAS: B (a compound having 3 or more and less than 10 is denoted as B)
HRAS wild-type protein
  HRAS /KRAS: C (A compound having a KD ratio of 0.1 or more and less than 3 is denoted as C)
[2]
  IC50: 3.4 nM

## CCCN1C(=O)CN(C)C(=O)CN(C)C(=O)[C@H]([C@@H](C)CC)NC(=O)[C@H](CC)N(C)C(=O)C[C@@H](C(=O)N2CCOCC2)N(C)C(=O)[C@H](C2CCCC2)N(C)C(=O)C2(CCCC2)NC(=O)[C@@H]2CC(F)(F)CN2C(=O)[C@H](CCc2ccc(C(F)(F)F)c(Cl)c2)NC(=O)CN(C)C(=O)[C@@H]1Cc1ccc(C(F)(F)F)cc1 [PP0202] ([NMeAbu]I[Sar][Sar][NPrPhe(4-CF3)][Sar][hPhe(3-Cl-4-CF3)][Pro(4,4-F2)][Ac5c][NMeGly(cPent)][NMeD]-Morpholide; lactam N-11)
[1]
  NRAS /KRAS: B (a compound having 3 or more and less than 10 is denoted as B)
HRAS wild-type protein
  HRAS /KRAS: C (A compound having a KD ratio of 0.1 or more and less than 3 is denoted as C)
[2]
  IC50: 3.9 nM

## CCCN1C(=O)[C@@H]2CCN2C(=O)[C@H](C)N(C)C(=O)[C@H]([C@@H](C)CC)NC(=O)[C@H](CC(F)(F)F)N(C)C(=O)C[C@@H](C(=O)N2CCOCC2)N(C)C(=O)[C@H](C2CCCC2)N(C)C(=O)C2(CCCC2)NC(=O)[C@@H]2CC(F)(F)CN2C(=O)[C@H](CCc2ccc(C(F)(F)F)c(Cl)c2)NC(=O)CN(C)C(=O)[C@@H]1Cc1ccc(C(F)(F)F)cc1 [PP0203] ([NMeAbu(4,4,4-F3)]I[NMeA][Aze][NPrPhe(4-CF3)][Sar][hPhe(3-Cl-4-CF3)][Pro(4,4-F2)][Ac5c][NMeGly(cPent)][NMeD]-Morpholide; lactam N-11)
[1]
  NRAS /KRAS: C (A compound having a KD ratio of 0.1 or more and less than 3 is denoted as C)
HRAS wild-type protein
  HRAS /KRAS: C (A compound having a KD ratio of 0.1 or more and less than 3 is denoted as C)
[2]
  IC50: 2.8 nM
